The data set in a line: Example 41: body weight and clinical observations. The class given is in vivo, BALB/cCrSlcNifdc mice. The note with it: for Individual animal body weight: single mouse per group. Here is the method:
• a) General clinical observations: The clinical condition of mice was observed three times per week during the study, including assessment of tumor nodule ulceration, general appearance/behavior, coat condition, and food intake. • b) Body weight: Mouse body weight was recorded three times per week. • c) Tumor volume: Tumor volume was measured three times per week using vernier calipers. The longest diameter (length) and the perpendicular short diameter (width) were measured, and tumor volume was calculated as: Volume = 0.5 × length × (short diameter)^2. […] The tumor-weight inhibition rate (IRTW, %) was calculated, taking IRTW% > 60% as a reference indicator of efficacy. The calculation is as follows: IRTW(%) = (Wvehicle control−Wtreatment)/Wvehicle control × 100, [formula] where W denotes tumor weight.

Consider `COc1cccc2c1C(=O)c1c(O)c3c(c(O)c1C2=O)C[C@@](O)(C(=O)CO)C[C@@H]3O[C@H]1C[C@H](N)[C@@H](O)[C@H](C)O1` [F, epirubicin], for which the “Animal body weight, D26” value (one animal per group, D26, 26 days after tumor cell injection, in g (unit assumed)) was 26.81. Also, the “Change in body weight (g)” value (one animal per group, before administration to D26) is on record as “+6.39 g”. The “Animal body weight, Before administration” value (one animal per group, tail-vein injection once weekly, total 2 administrations, before administration) was determined as 20.42. The “Individual animal body weight” value by setting is: (DAY 12, in g (unit assumed)) 20.42; (DAY 14, in g (unit assumed)) 22.15; (DAY 17, in g (unit assumed)) 23.68; (DAY 19, in g (unit assumed)) 25.41; (DAY 21, in g (unit assumed)) 26.51; (DAY 24, in g (unit assumed)) 29.19. Also, the “Individual animal body weight” value (DAY 26, in g (unit assumed)) amounted to 26.81.

The values are drawn from patent EP4745242A1, “NUCLEIC ACID VECTOR, NUCLEIC ACID DRUG, PREPARATION METHOD THEREFOR, AND USE THEREOF” (Bai Yao Zhi Da (Beijing) Nanobio Technology Co., Ltd., priority 2023, dated 2025).
